Where a name gives a salt, the structure may show the parent alone. A value given as a limit tells only on which side of the number the result lay.

The target of experiment [1] is T1, KRas G12D (Homo sapiens (Human), UniProt P01116, G12D). Nature of the experiment: KRas G12D Surface Plasmon Resonance (SPR) Binding Assay. The note with it: Biacore T200, immobilized biotinylated KRAS protein, 1:1 binding model.
Target sequence in this assay (P01116-2 other isoform, or with tags, fused parts or gaps G12D): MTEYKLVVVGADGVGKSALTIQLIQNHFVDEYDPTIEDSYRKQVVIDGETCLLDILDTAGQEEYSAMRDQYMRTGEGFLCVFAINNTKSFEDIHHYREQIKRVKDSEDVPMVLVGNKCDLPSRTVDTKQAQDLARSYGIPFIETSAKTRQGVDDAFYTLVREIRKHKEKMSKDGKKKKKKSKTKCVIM
In experiment [2] the target is T1, KRas G12D. Nature of the experiment: KRas G12D Binding Assay (TR-FRET displacement of Cy5 labelled tracer). The note with it: GDP-loaded KRAS G12D (amino acids 1:169), 60 minute incubation at 22° C. As for the experimental part:
After a 60 minute incubation at 22° C., the reaction was measured using a PerkinElmer EnVision multimode plate reader via TR-FRET dual wavelength detection, and the percent of control (POC) calculated using a ratiometric emission factor. […] The POC values were fit to a 4-parameter logistic curve and the IC50 value was determined as the concentration where the curve crosses 50 POC.
ND stands for “not determined.”
Target sequence in this assay (P01116 other isoform, or with tags, fused parts or gaps G12D): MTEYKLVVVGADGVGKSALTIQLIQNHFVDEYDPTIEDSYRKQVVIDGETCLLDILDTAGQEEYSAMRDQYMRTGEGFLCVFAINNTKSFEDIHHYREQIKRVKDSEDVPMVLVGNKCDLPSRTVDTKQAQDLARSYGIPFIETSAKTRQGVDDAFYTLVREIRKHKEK

On KRas G12D [1], `CC1(N)CN(c2nc(N3C[C@H]4CC[C@@H](C3)N4)c3cnc(-c4cc(O)cc5ccccc45)c(F)c3n2)C1` [Example 124, 4-(2-(3-amino-3-methylazetidin-1-yl)-4-((1R,5S)-3,8-diazabicyclo[3.2.1]octan-3-yl)-8-fluoropyrido[4,3-d]pyrimidin-7-yl)naphthalen-2-ol] returned a Kd of 22.7 nM. The compound further showed an IC50 on KRas G12D [2] of 8.6 nM.

As to `Fc1c(-c2cccc3cccc(Cl)c23)ncc2c(N3C[C@H]4CC[C@@H](C3)N4)nc(OCCc3cccnc3)nc12` [Example 113, 4-((1R,5S)-3,8-diazabicyclo[3.2.1]octan-3-yl)-7-(8-chloronaphthalen-1-yl)-8-fluoro-2-(2-(pyridin-3-yl)ethoxy)pyrido[4,3-d]pyrimidine], at KRas G12D [1], the Kd came out at 2500 nM. This compound also gave an IC50 at KRas G12D [2] of 2870 nM.

Compound `CO[C@@H]1CN2CCC[C@]2(COc2nc(N3C[C@H]4CC[C@@H](C3)N4)c3cnc(-c4cccc5cccc(Cl)c45)c(F)c3n2)C1` [Example 219, 4-((1R,5S)-3,8-diazabicyclo[3.2.1]octan-3-yl)-7-(8-chloronaphthalen-1-yl)-8-fluoro-2-((2-methoxytetrahydro-1H-pyrrolizin-7a(5H)-yl)methoxy)pyrido[4,3-d]pyrimidine bis-hydrochloride] yielded a Kd on KRas G12D [1] of 8.1 nM. The compound further yielded an IC50 at KRas G12D [2] of 8.1 nM.

Compound `Oc1cc(-c2ncc3c(N4C[C@H]5CC[C@@H](C4)N5)nc(N4CCCC4)nc3c2F)c2ccccc2c1` [Example 118, 4-(4-((1R,5S)-3,8-diazabicyclo[3.2.1]octan-3-yl)-8-fluoro-2-(pyrrolidin-1-yl)pyrido[4,3-d]pyrimidin-7-yl)naphthalen-2-ol 2,2,2-trifluoroacetate] displayed a Kd at KRas G12D [1] of 1060 nM. At KRas G12D [2], this compound gave an IC50 of 477 nM.

The compound `COCCCOc1nc(N2C[C@H]3CC[C@@H](C2)N3)c2cnc(-c3cc(O)cc4ccccc34)c(F)c2n1` [Example 68, 4-(4-((1R,5S)-3,8-diazabicyclo[3.2.1]octan-3-yl)-8-fluoro-2-(3-methoxypropoxy)pyrido[4,3-d]pyrimidin-7-yl)naphthalen-2-ol] returned a Kd at KRas G12D [1] of 293 nM. Moreover, on KRas G12D [2], the IC50 is 257 nM.

On KRas G12D [1], `Fc1c(-c2cccc3ccccc23)ncc2c(N3C[C@H]4CC[C@@H](C3)N4)nc(OC[C@@H]3CCCN3Cc3ccccc3)nc12` [Example 108, 2-(((S)-1-benzylpyrrolidin-2-yl)methoxy)-4-((1R,5S)-3,8-diazabicyclo[3.2.1]octan-3-yl)-8-fluoro-7-(naphthalen-1-yl)pyrido[4,3-d]pyrimidine] had a dissociation constant Kd of 63500 nM. Further, the IC50 at KRas G12D [2] is 4840 nM.

On KRas G12D [1], `CC(C)N1CCC[C@H]1COc1nc(N2C[C@H]3CC[C@@H](C2)N3)c2cnc(-c3cccc4cccc(Cl)c34)c(F)c2n1` [Example 29, 4-((1R,5S)-3,8-diazabicyclo[3.2.1]octan-3-yl)-7-(8-chloronaphthalen-1-yl)-8-fluoro-2-(((S)-1-isopropylpyrrolidin-2-yl)methoxy)pyrido[4,3-d]pyrimidine] showed a Kd of 170 nM. On KRas G12D [2], the IC50 was determined as 160 nM.

Turning to `Oc1cc(-c2ncc3c(N4C[C@H]5CC[C@@H](C4)N5)nc(OCC(F)(F)F)nc3c2F)c2ccccc2c1` [Example 48, 4-(4-((1R,5S)-3,8-diazabicyclo[3.2.1]octan-3-yl)-8-fluoro-2-(2,2,2-trifluoroethoxy)pyrido[4,3-d]pyrimidin-7-yl)naphthalen-2-ol], on KRas G12D [1], the Kd amounted to 931 nM. At KRas G12D [2], the IC50 came to 434 nM.

At KRas G12D [1], `Oc1cc(-c2ncc3c(N4C[C@H]5CC[C@@H](C4)N5)nc(OCCc4ccccc4)nc3c2F)c2ccccc2c1` [Example 96, 4-(4-((1R,5S)-3,8-diazabicyclo[3.2.1]octan-3-yl)-8-fluoro-2-phenethoxypyrido[4,3-d]pyrimidin-7-yl)naphthalen-2-ol] showed a Kd of 710 nM. Besides, the IC50 at KRas G12D [2] stood at 2220 nM.

Consider `CN1CCC[C@H]1COc1nc(N2CC3CCC(C2)N3)c2cnc(-c3cccc4c3CCC4O)c(F)c2n1` (stereo partly drawn) [Example 318, 4-(4-((1R,5S)-3,8-diazabicyclo[3.2.1]octan-3-yl)-8-fluoro-2-(((S)-1-methylpyrrolidin-2-yl)methoxy)pyrido[4,3-d]pyrimidin-7-yl)-2,3-dihydro-1H-inden-1-ol], for which, on KRas G12D [1], the Kd amounted to 368000 nM. Also, the IC50 at KRas G12D [2] is above 10000 nM.

`OCCOc1nc(N2C[C@H]3CC[C@@H](C2)N3)c2cnc(-c3cc(O)cc4ccccc34)c(F)c2n1` [Example 69, 4-(4-((1R,5S)-3,8-diazabicyclo[3.2.1]octan-3-yl)-8-fluoro-2-(2-hydroxyethoxy)pyrido[4,3-d]pyrimidin-7-yl)naphthalen-2-ol] registered a Kd at KRas G12D [1] of 522 nM. The IC50 on KRas G12D [2] was determined as 530 nM.

On KRas G12D [1], `CN1CCC[C@H]1COc1nc(N2C[C@H]3CC[C@@H](C2)N3)c2cnc(-c3cc(O)cc4ccccc34)cc2n1` [Example 1, 4-(4-((1R,5S)-3,8-diazabicyclo[3.2.1]octan-3-yl)-2-(((S)-1-methylpyrrolidin-2-yl)methoxy)pyrido[4,3-d]pyrimidin-7-yl)naphthalen-2-ol tris-hydrochloride salt] returned a Kd of 97.7 nM. Further, at KRas G12D [2], the IC50 came out at 125 nM.

On KRas G12D [1], `OCC(CO)COc1nc(N2C[C@H]3CC[C@@H](C2)N3)c2cnc(-c3cccc4cccc(Cl)c34)c(F)c2n1` [Example 35, 2-(((4-((1R,5S)-3,8-diazabicyclo[3.2.1]octan-3-yl)-7-(8-chloronaphthalen-1-yl)-8-fluoropyrido[4,3-d]pyrimidin-2-yl)oxy)methyl)propane-1,3-diol] showed a Kd of 1380 nM. This compound showed an IC50 on KRas G12D [2] of 475 nM.

`Oc1cc(-c2ncc3c(N4C[C@H]5CC[C@@H](C4)N5)nc(OCC4(C(F)(F)F)CCCC4)nc3c2F)c2ccccc2c1` [Example 46, 4-(4-((1R,5S)-3,8-diazabicyclo[3.2.1]octan-3-yl)-8-fluoro-2-((1-(trifluoromethyl)cyclopentyl)methoxy)pyrido[4,3-d]pyrimidin-7-yl)naphthalen-2-ol] registered a Kd on KRas G12D [1] of 798 nM. The same compound yielded an IC50 at KRas G12D [2] of 721 nM.

For the compound `CCOC(=O)CCCOc1nc(N2C[C@H]3CC[C@@H](C2)N3)c2cnc(-c3cccc4cccc(Cl)c34)c(F)c2n1` [Example 319, Ethyl 4-((4-((1R,5S)-3,8-diazabicyclo[3.2.1]octan-3-yl)-7-(8-chloronaphthalen-1-yl)-8-fluoropyrido[4,3-d]pyrimidin-2-yl)oxy)butanoate], on KRas G12D [1], the Kd was 256000 nM. At KRas G12D [2], this compound returned an IC50 above 10000 nM.

At KRas G12D [1], `CC(C)Cn1ccnc1CCOc1nc(N2C[C@H]3CC[C@@H](C2)N3)c2cnc(-c3cc(O)cc4ccccc34)c(F)c2n1` [Example 85, 4-(4-((1R,5S)-3,8-diazabicyclo[3.2.1]octan-3-yl)-8-fluoro-2-(2-(1-isobutyl-1H-imidazol-2-yl)ethoxy)pyrido[4,3-d]pyrimidin-7-yl)naphthalen-2-ol] displayed a Kd of 148 nM. The IC50 on KRas G12D [2] worked out at 454 nM.

At KRas G12D [1], `CN1CCC[C@H]1COc1nc(N2C[C@H]3CC[C@@H](C2)N3)c2cnc(-c3cccc4c3C(C)(C)CC4)c(F)c2n1` [Example 161, 4-((1R,5S)-3,8-diazabicyclo[3.2.1]octan-3-yl)-7-(3,3-dimethyl-2,3-dihydro-1H-inden-4-yl)-8-fluoro-2-(((S)-1-methylpyrrolidin-2-yl)methoxy)pyrido[4,3-d]pyrimidine bis(2,2,2-trifluoroacetate)] gave a Kd of 403 nM. This compound came in with an IC50 on KRas G12D [2] of 273 nM.

For `CN(C)C1CN(c2nc(N3C[C@H]4CC[C@@H](C3)N4)c3cnc(-c4cccc5cccc(Cl)c45)c(F)c3n2)C1` [Example 122, 1-(4-((1R,5S)-3,8-diazabicyclo[3.2.1]octan-3-yl)-7-(8-chloronaphthalen-1-yl)-8-fluoropyrido[4,3-d]pyrimidin-2-yl)-N,N-dimethylazetidin-3-amine], the dissociation constant Kd on KRas G12D [1] came out at 3420 nM. Also, at KRas G12D [2], the IC50 came to 3270 nM.

With `Cn1ccnc1CCOc1nc(N2C[C@H]3CC[C@@H](C2)N3)c2cnc(-c3cc(O)cc4ccccc34)c(F)c2n1` [Example 3, 4-(4-((1R,5S)-3,8-diazabicyclo[3.2.1]octan-3-yl)-8-fluoro-2-(2-(1-methyl-1H-imidazol-2-yl)ethoxy)pyrido[4,3-d]pyrimidin-7-yl)naphthalen-2-ol], on KRas G12D [1], the Kd is 8.3 nM. The compound further returned an IC50 at KRas G12D [2] of 9.5 nM.

`OCCCOc1nc(N2C[C@H]3CC[C@@H](C2)N3)c2cnc(-c3cc(O)cc4ccccc34)c(F)c2n1` [Example 75, 4-(4-((1R,5S)-3,8-diazabicyclo[3.2.1]octan-3-yl)-8-fluoro-2-(3-hydroxypropoxy)pyrido[4,3-d]pyrimidin-7-yl)naphthalen-2-ol]: the Kd on KRas G12D [1] was 304 nM. On KRas G12D [2], this compound yielded an IC50 of 240 nM.

In turn, `Oc1cc(-c2ncc3c(N4C[C@H]5CC[C@@H](C4)N5)nc(N4CC5(CCOCC5)C4)nc3c2F)c2ccccc2c1` [Example 74, 4-(4-((1R,5S)-3,8-diazabicyclo[3.2.1]octan-3-yl)-8-fluoro-2-(7-oxa-2-azaspiro[3.5]nonan-2-yl)pyrido[4,3-d]pyrimidin-7-yl)naphthalen-2-ol] returned a Kd on KRas G12D [1] of 141 nM. For the same compound, the IC50 at KRas G12D [2] was 188 nM.

For `Oc1cc(-c2ncc3c(N4C[C@H]5CC[C@@H](C4)N5)nc(OCCC(F)(F)F)nc3c2F)c2ccccc2c1` [Example 81, 4-(4-((1R,5S)-3,8-diazabicyclo[3.2.1]octan-3-yl)-8-fluoro-2-(3,3,3-trifluoropropoxy)pyrido[4,3-d]pyrimidin-7-yl)naphthalen-2-ol], binding at KRas G12D [1] was characterised by a dissociation constant (Kd) of 321 nM. In addition, the IC50 on KRas G12D [2] was found to be 153 nM.

`Fc1c(-c2cccc3cccc(Cl)c23)ncc2c(N3C[C@H]4CC[C@@H](C3)N4)nc(OC[C@@H]3CCCN3Cc3ccccc3)nc12` [Example 97, 2-(((S)-1-benzylpyrrolidin-2-yl)methoxy)-4-((1R,5S)-3,8-diazabicyclo[3.2.1]octan-3-yl)-7-(8-chloronaphthalen-1-yl)-8-fluoropyrido[4,3-d]pyrimidine] came in with a Kd on KRas G12D [1] of 5920 nM. This compound also yielded an IC50 at KRas G12D [2] of 934 nM.

By Kd is commonly meant the free concentration of one partner at which half of the binding sites on the other are occupied at equilibrium, for simple one-to-one binding. Low values mean higher affinity, high ones lower affinity. By IC50 is commonly meant the concentration at which inhibition is half-maximal. Lower therefore signals higher potency.

Source of the values: patent US20230279025A1, “KRAS G12D INHIBITORS” (Mirati Therapeutics, Inc., priority 2020, published 2023).
